Read-outs that look alike come from different tables or passages of the source.
Legend:
[1] = ABTS^● decolorization assay; conditions: 30 min incubation at room temperature, absorbance at 734 nm
Description: A modification of the ABTS^● decolorization assay was employed. Briefly, various volumes of solutions of the studied compounds were introduced to wells of a 96-well microplate, each prefilled 200 μL of ABTS^● solution. […] The drop in absorbance after 30 min incubation at room temperature was read as a measure of the antioxidant activity.
(§1) All assays were standardized with respect to Trolox. The antioxidant activity was calculated in each case as a ratio of the slope of the dependence of absorbance change on the concentration of a studied compound to the slope of the dependence of absorbance change of standard samples concerning Trolox on the concentration of Trolox. Antioxidant activities were expressed in moles of Trolox equivalents (TE)/mol of a studied compound, as described previously.

[2] = DPPH^● decolorization assay; conditions: 30 min at ambient temperature in the dark, absorbance at 517 nm
Description: The assay was performed as described in a previous article. Briefly, increasing volumes of solutions of the studied compounds were introduced to wells of a 96-well microplate, each with 200 μL of 0.3 mM DPPH^● solution in methanol. The reaction was allowed to proceed for 30 min at ambient temperature in the dark, and absorbance at 517 nm was read. The absorbance decrease was a measure of the antioxidant activity.
as §1

[3] = Ferric reducing antioxidant power (FRAP) assay; conditions: 30 min at ambient temperature, pH 3.6, absorbance at 593 nm
Description: The method proposed by Benzie and Strain [91] was employed with a slight modification. Briefly, increasing volumes of solutions of the studied compounds were added to wells of a 96-well microplate prefilled with 200 μL of the working solution composed of 0.3 M acetate buffer, pH 3.6 (10 volumes), 10 mM 2,4,6-tris(2-pyridyl)-s-triazine (TPTZ), in 40 mM HCl (1 volume) and 20 mM FeCl3 (1 volume), was prepared immediately before use. After 30 min incubation at ambient temperature and the absorbance of the Fe^2+-TPTZ complex was read at 593 nm.
as §1

[4] = system: SKOV-3 ovarian cancer cells; assay: Cytotoxicity (Neutral Red), SKOV-3 cells; type: cell-based, human; conditions: 24 h exposure; for IC50: Homo sapiens, SK-OV-3, Neutral Red, read-out: IC50 SKOV-3; for Concentration at which viability of SKOV-3 cells was lowered: p < 0.05
Description: (§2) The PEO1 cells, SKOV-3 cells, and MRC-5 cells were grown at 37 °C and 5% CO2 in RPMI + GlutaMAX medium, McCoy’s 5A medium, and the DMEM + GlutaMAX medium, respectively. The media were supplemented with 10% heat-inactivated fetal calf serum and penicillin/streptomycin. The cell viability was evaluated using the Trypan Blue exclusion test.
(§3) In the cytotoxicity experiments, cells were grown in wells of sterile 96-well plates. The seeding density was 1 × 10^4 for SKOV-3 and MRC-5 cells and 1.5 × 10^4 for PEO1 cells. The cells were allowed to grow in the incubator for 24 h. Then, the medium was removed and new medium with an examined compound was added. The stock solutions of the compounds studied diluted with the appropriate cell medium were filtered before the addition to the cells using 0.22 µm filters. No more than 0.02% of DMSO was present in the media, and it had no discernible impact on the treated cells. Cells not exposed to any compound served as a control. After another 24 h incubation, the medium was gently aspirated, and the wells were added with 2% sterile Neutral Red solution (100 µL). The plates were then incubated (37 °C, 5% CO2) for one hour. The Neutral Red solution was aspirated, and the wells were washed two times with warm (37 °C) PBS. Subsequently, 100 µL of a permeabilization mixture (water/ethanol/glacial acetic acid, 50/49/1, v/v/v) was introduced to each well. The plates were shaken at 700 rpm for 20 min and absorbance was read at a wavelength of 540 nm against 620 nm.

MRC-5 fibroblasts = assay: Cytotoxicity (Neutral Red), MRC-5 fibroblasts; type: cell-based, human; conditions: for IC50: read-out: IC50 MRC-5; for Concentration at which viability of MRC-5 cells was lowered: p < 0.05
Description: as §2, §3

[5] = system: PEO1 ovarian cancer cells; assay: Cytotoxicity (Neutral Red), PEO1 cells; type: cell-based, human; conditions: for IC50: Homo sapiens, read-out: IC50 PEO1
Description: as §2, §3

neuroblastoma N2a cells = system: neuroblastoma N2a cells; parameters: method as in PMID 24760364; conditions: after 24 h; read-out: Concentration decreasing proliferation of N2a cells by 50%; cited from earlier work
A375 melanocytes = system: A375 melanocytes; parameters: method as in PMID 33178586; conditions: read-out: Concentration decreasing proliferation of A375 melanocytes by 50%; cited from earlier work
B16 melanocytes = system: B16 melanocytes; parameters: method as in PMID 33178586; conditions: read-out: Concentration decreasing proliferation of B16 melanocytes by 50%; cited from earlier work
[6] = system: colon carcinoma HT-29 cells; parameters: method as in PMID 24282361; conditions: after 48 h exposure; read-out: Concentration decreasing proliferation of HT-29 cells by 50%; cited from earlier work
[7] = system: colorectal carcinoma HCT-15 cells; parameters: method as in PMID 24282361; conditions: after 48 h exposure; read-out: Concentration decreasing proliferation of HCT-15 cells by 50%; cited from earlier work
[8] = system: microsomal lipid peroxidation; parameters: method as in PMID 16822206; conditions: cited from earlier work
[9] = system: cervical epidermoid carcinoma Ca Ski cells; parameters: method as in PMID 19035312; conditions: 24 h exposure; read-out: Concentration decreasing viability of Ca Ski cells to about 50%; cited from earlier work
[10] = system: breast cancer MCF-7 cells; parameters: method as in PMID 18817629; conditions: 24 h exposure; read-out: Concentration decreasing viability of MCF-7 cells to about 50%; cited from earlier work
[11] = system: prostatic carcinoma LNCaP cells; parameters: method as in PMID 16142693; conditions: 100 μM, 24 h exposure; cited from earlier work
lung cancer A549 cells = system: lung cancer A549 cells; parameters: method as in PMID 16024053; conditions: 200 μM, 24 h exposure; cited from earlier work
[12] = system: colorectal cancer HCT-116 cells; parameters: method as in PMID 19202565; conditions: 400 μM, 24 h exposure; cited from earlier work
MDA-MB-468 cells = system: MDA-MB-468 cells; parameters: method as in earlier work; conditions: 1.5 mM, 24 h exposure; cited from earlier work
[13] = system: lung epithelial BEAS-2B cells; parameters: method as in earlier work; conditions: 1.5 mM, 24 h exposure; cited from earlier work
SKOV-3 cells = system: SKOV-3 cells; parameters: method as in PMID 16675472; conditions: cited from earlier work
[14] = system: A2780 human ovarian carcinoma cells; parameters: method as in PMID 24362328; conditions: prolonged treatment; cited from earlier work
[15] = system: breast cancer MCF-7 cells; parameters: method as in PMID 32286702; conditions: 1 mM, 24 h exposure; cited from earlier work
[16] = system: breast cancer HCC-70 cells; parameters: method as in PMID 32286702; conditions: 1 mM, 24 h exposure; cited from earlier work
[17] = Homo sapiens, MRC5, 24 h exposure, Neutral Red
[18] = PEO1, 24 h exposure, Neutral Red

C=CCSCC(N)C(=O)O (stereo in doubt) [S-Allyl-D-cysteine]
Antioxidant activity, ABTS^● Decolorization [1]: 0.070 ± 0.059 mol Trolox equivalents (TE)/mol compound
Antioxidant activity, DPPH^● Decolorization [2]: −0.020 ± 0.004 mol Trolox equivalents (TE)/mol compound
Antioxidant activity, FRAP [3]: 0.0003 ± 0.0002 mol Trolox equivalents (TE)/mol compound
IC50 [4]: 421 µM
IC50 (MRC-5 fibroblasts; [17]): 578 µM

C=CCSCC=C [Allyl sulfide]
Antioxidant activity, ABTS^● Decolorization [1]: 0.016 ± 0.010 mol Trolox equivalents (TE)/mol compound
Antioxidant activity, DPPH^● Decolorization [2]: −0.006 ± 0.011 mol Trolox equivalents (TE)/mol compound
Antioxidant activity, FRAP [3]: 0.0026 ± 0.0010 mol Trolox equivalents (TE)/mol compound
Concentration range with no significant decrease in viability of SKOV-3 cells [4]: up to 100 µM
Concentration at which viability of SKOV-3 cells was lowered [4]: 200 to 500 µM
IC50 [4]: 243 µM
Concentration range with no significant decrease in viability of PEO1 cells ([5]; 24 h exposure): up to 100 µM
IC50 [5, 18]: 257 µM
Concentration range with no significant decrease in viability of MRC-5 cells (MRC-5 fibroblasts; 24 h exposure): up to 100 µM
Concentration at which viability of MRC-5 cells was lowered (MRC-5 fibroblasts; 24 h exposure): 200 to 500 µM
IC50 (MRC-5 fibroblasts; [17]): 163 µM

O=C(O)/C=C/c1ccc(O)cc1 [Coumaric acid]
Antioxidant activity, ABTS^● Decolorization [1]: 0.585 ± 0.082 mol Trolox equivalents (TE)/mol compound
Antioxidant activity, DPPH^● Decolorization [2]: 0.076 ± 0.005 mol Trolox equivalents (TE)/mol compound
Antioxidant activity, FRAP [3]: 0.153 ± 0.003 mol Trolox equivalents (TE)/mol compound
Concentration range with no significant decrease in viability of SKOV-3 cells [4]: 0 to 1000 µM
Concentration range with no significant decrease in viability of PEO1 cells ([5]; 24 h exposure): 0 to 1000 µM
IC50 [5, 18]: 1430 µM
Concentration range with no significant decrease in viability of MRC-5 cells (MRC-5 fibroblasts; 24 h exposure): 0 to 1000 µM
IC50 (neuroblastoma N2a cells): 104 µM
IC50 (A375 melanocytes): 2500 µM
IC50 (B16 melanocytes): 2800 µM
IC50 [6]: 1400 µM
IC50 [7]: 1600 µM

C=CCSSCC=C [Diallyl disulfide, diallyl disulfide]
Antioxidant activity, ABTS^● Decolorization [1]: 0.013 ± 0.006 mol Trolox equivalents (TE)/mol compound
Antioxidant activity, DPPH^● Decolorization [2]: 0.049 ± 0.014 mol Trolox equivalents (TE)/mol compound
Antioxidant activity, FRAP [3]: 0.0025 ± 0.0011 mol Trolox equivalents (TE)/mol compound
IC50 ([5]; PEO1, 24 h): 265 µM
Concentration at which viability of MRC-5 cells was lowered (MRC-5 fibroblasts; 24 h exposure): 300 µM
IC50 (MRC-5 fibroblasts; Homo sapiens, MRC5, 24 h): 268 µM
Termination of lipid peroxidation / prevention of induced microsomal lipid peroxidation [8]: efficient lipid peroxidation terminator
IC50 [9]: ~25 µM
IC50 [10]: 400 µM
Reduction of survival of LNCaP cells [11]: about 30%
Reduction of survival of A549 cells (lung cancer A549 cells): about 20%
Survival of HCT-116 cells (decreased to) [12]: ca. 80%
Viability of MDA-MB-468 cells (reduced to) (MDA-MB-468 cells): about 65%
Viability of BEAS-2B cells (reduced to) [13]: about 75%

C=CCSSSCC=C [Diallyl trisulfide, diallyl trisulfide]
Antioxidant activity, ABTS^● Decolorization [1]: 0.030 ± 0.006 mol Trolox equivalents (TE)/mol compound
Antioxidant activity, DPPH^● Decolorization [2]: 0.005 ± 0.0003 mol Trolox equivalents (TE)/mol compound
Antioxidant activity, FRAP [3]: 0.0022 ± 0.0004 mol Trolox equivalents (TE)/mol compound
Concentration at which viability of SKOV-3 cells was lowered [4]: 50 µM
IC50 [4]: 154 µM
Concentration at which viability of PEO1 cells was lowered ([5]; 24 h exposure, p < 0.05): 50 µM
IC50 [5, 18]: 721 µM
Concentration range with no significant decrease in viability of MRC-5 cells (MRC-5 fibroblasts; 24 h exposure): 0 to 50 µM

C=CCSC[C@H](N)C(=O)O [SAC, S-allylcysteine]
Termination of lipid peroxidation / prevention of induced microsomal lipid peroxidation [8]: ineffective
Migration of SKOV-3 cells and their invasiveness (SKOV-3 cells): inhibited
Apoptosis of A2780 cells [14]: provoked apoptosis
Migration and invasiveness of A2780 cells [14]: attenuated
Proliferation of A2780 cells [14]: inhibited proliferation

alliin
Antioxidant activity, ABTS^● Decolorization [1]: 0.035 ± 0.012 mol Trolox equivalents (TE)/mol compound
Antioxidant activity, DPPH^● Decolorization [2]: 0.004 ± 0.001 mol Trolox equivalents (TE)/mol compound
Antioxidant activity, FRAP [3]: 0.0006 ± 0.0007 mol Trolox equivalents (TE)/mol compound
IC50 (MRC-5 fibroblasts; 24 h exposure, Neutral Red): 321 µM
Termination of lipid peroxidation / prevention of induced microsomal lipid peroxidation [8]: ineffective
Viability of MCF-7 cells (decreased down to) [15]: ca. 75%
Viability of HCC-70 cells (decreased down to) [16]: ca. 85%
